# How the values were obtained:
# P-388 leukemia cells = assay: Antitumor activity against P-388 leukemia cells (i.p. implanted, i.v. drug); assay type: in vivo, BDF1 mice; conditions: Mus musculus, P388, iv, 720 h, i.v., 30-day observation, read-out: T/C of MST; for response vs control in vivo at 20 mg/kg: dose b: 20 mg/kg/d × 3 (days 1, 5, 9); for response vs control in vivo at 40 mg/kg: dose c: 40 mg/kg/d × 3 (days 1, 5, 9); for response vs control in vivo at 20 mg/kg/day: dose b': 20 mg/kg/d × 2 (days 1, 5); for response vs control in vivo at 80 mg/kg: dose f: 80 mg/kg/d × 3 (days 1, 5, 9)
# Description: BDF1 mice were implanted intraperitoneally with P-388 leukemia cells at a rate of 1×10^6 cells/mouse, and each drug to be tested was administered intravenously on the first, fifth and ninth days, or on the first and fifth days after the implantation. […] The T/C (%) was calculated based on the following equation: [formula]
# The drugs tested were as follows: solutions prepared by dissolving each of compound Nos. 34, 36 and 43 to 46 in physiological saline; suspension or solutions prepared by dissolving each of compound Nos. 35, 38 and 49 to 55 in dimethylacetamide, followed by adding thereto a small amount of a surface active agent (e.g., Tween-80) and then physiological saline; and suspension or solutions prepared by mixing each of the other compounds and a small amount of a surface active agent (e.g., Tween-80), followed by adding thereto physiological saline.
# [1] = Acute toxicity (LD50, single intravenous administration); set-up: species or system day mice; conditions: mouse, in vivo, mice, single i.v.
# Excerpt: In Table 15 are shown acute toxicity values (LD50, mg/kg) in day mice in the case of intravenously administering (once) each of the compounds of this invention in the form of preparations shown in the Preparation Examples shown in Table 16.
compound,measurement,setting,value
CNCC(C)C(=O)Oc1c2cccc(OC3OC(C)C4OC(c5ccccc5)OC4C3OC3OC(C)C(N)C(OC)C3O)c2c2oc(=O)c3c(C)ccc4oc(=O)c1c2c43 (centres unmarked) [Compound 44],response vs control in vivo at 20 mg/kg,P-388 leukemia cells,138%
same,response vs control in vivo at 40 mg/kg,P-388 leukemia cells,148%
same,LD50,[1]; Preparation Example 8,≥ 40 mg/kg
COC1C(O)C(C)OC(OC2C(Oc3cccc4c(OC(=O)C=Cc5c[nH]cn5)c5c(=O)oc6ccc(C)c7c(=O)oc(c34)c5c67)OC(C)C3OC(c4ccccc4)OC32)C1O (centres unmarked) [Compound 16],response vs control in vivo at 40 mg/kg,P-388 leukemia cells,148%
same,LD50,[1]; Preparation Example 2,≥ 40 mg/kg
CCCCCC(=O)Oc1c2cccc(OC3OC(C)C4OC(c5ccccc5)OC4C3OC3OC(C)C(N)C(OC)C3O)c2c2oc(=O)c3c(C)ccc4oc(=O)c1c2c43 (centres unmarked) [Compound 54],response vs control in vivo at 20 mg/kg/day,P-388 leukemia cells,165%
same,LD50,[1]; Preparation Example 7,≥ 40 mg/kg
COC1C(O)C(C)OC(OC2C(Oc3cccc4c(OC(=O)c5ocnc5C)c5c(=O)oc6ccc(C)c7c(=O)oc(c34)c5c67)OC(C)C3OC(c4ccccc4)OC32)C1O (centres unmarked) [Compound 103],response vs control in vivo at 60 mg/kg,"P-388 leukemia cells; dose e: 60 mg/kg/d × 3 (days 1, 5, 9)",236%
same,response vs control in vivo at 30 mg/kg,"P-388 leukemia cells; dose j: 30 mg/kg/d × 3 (days 1, 5, 9)",210%
same,LD50,[1]; Preparation Example 2,≥ 60 mg/kg
CNCCC(=O)Oc1c2cccc(OC3OC(C)C4OC(c5ccccc5)OC4C3OC3OC(C)C(N)C(OC)C3O)c2c2oc(=O)c3c(C)ccc4oc(=O)c1c2c43 (centres unmarked) [Compound 43],response vs control in vivo at 20 mg/kg,P-388 leukemia cells,150%
same,response vs control in vivo at 40 mg/kg,P-388 leukemia cells,230%
same,LD50,[1]; Preparation Example 8,≥ 40 mg/kg
COC1C(O)C(C)OC(OC2C(Oc3cccc4c(OC(=O)c5ccc6[nH]ccc6c5)c5c(=O)oc6ccc(C)c7c(=O)oc(c34)c5c67)OC(C)C3OC(c4ccccc4)OC32)C1O (centres unmarked) [Compound 18],response vs control in vivo at 20 mg/kg,P-388 leukemia cells,167%
same,response vs control in vivo at 40 mg/kg,P-388 leukemia cells,242%
same,LD50,[1]; Preparation Example 2,≥ 40 mg/kg
COC1C(O)C(C)OC(OC2C(Oc3cccc4c(OC(=O)c5ccc[nH]5)c5c(=O)oc6ccc(C)c7c(=O)oc(c34)c5c67)OC(C)C3OC(c4cccc(Br)c4)OC32)C1O (centres unmarked) [Compound 31],response vs control in vivo at 40 mg/kg,P-388 leukemia cells,128%
same,LD50,[1]; Preparation Example 1,≥ 40 mg/kg
COC1C(O)C(C)OC(OC2C(Oc3cccc4c(OC(=O)C5CC(OC(C)=O)CC(C)(C)O5)c5c(=O)oc6ccc(C)c7c(=O)oc(c34)c5c67)OC(C)C3OC(c4ccccc4)OC32)C1O (centres unmarked) [Compound 26],LD50,[1]; Preparation Example 2,≥ 20 mg/kg
COC1C(N)C(C)OC(OC2C(Oc3cccc4c(OC(=O)C(C)CNC(=O)C(F)(F)F)c5c(=O)oc6ccc(C)c7c(=O)oc(c34)c5c67)OC(C)C3OC(C)(C)OC32)C1O (centres unmarked) [Compound 56],response vs control in vivo at 80 mg/kg,P-388 leukemia cells,138%
same,LD50,[1]; Preparation Example 1,≥ 80 mg/kg
COC1C(N)C(C)OC(OC2C(Oc3cccc4c(OC(=O)Cc5ccccc5)c5c(=O)oc6ccc(C)c7c(=O)oc(c34)c5c67)OC(C)C3OC(c4ccccc4)OC32)C1O (centres unmarked) [Compound 50],response vs control in vivo at 20 mg/kg/day,P-388 leukemia cells,165%
same,response vs control in vivo at 40 mg/kg/day,"P-388 leukemia cells; dose c': 40 mg/kg/d × 2 (days 1, 5)",208%
same,LD50,[1]; Preparation Example 7,≥ 40 mg/kg
COC1C(N)C(C)OC(OC2C(Oc3cccc4c(OC(=O)C(C)CNC(=O)C(F)(F)F)c5c(=O)oc6ccc(C)c7c(=O)oc(c34)c5c67)OC(C)C3OC(c4ccccc4)OC32)C1O (centres unmarked) [Compound 40],response vs control in vivo at 20 mg/kg,P-388 leukemia cells,142%
same,response vs control in vivo at 40 mg/kg,P-388 leukemia cells,219%
same,LD50,[1]; Preparation Example 1,≥ 40 mg/kg
COC1C(N)C(C)OC(OC2C(Oc3cccc4c(OC(=O)CCNC=O)c5c(=O)oc6ccc(C)c7c(=O)oc(c34)c5c67)OC(C)C3OC(c4cccc(Br)c4)OC32)C1O (centres unmarked) [Compound 38],response vs control in vivo at 80 mg/kg,P-388 leukemia cells,133%
same,LD50,[1]; Preparation Example 6,≥ 80 mg/kg
"COc1cccc(C(=O)Oc2c3cccc(OC4OC(C)C5OC(c6ccccc6)OC5C4OC4OC(C)C(N)C(OC)C4O)c3c3oc(=O)c4c(C)ccc5oc(=O)c2c3c54)c1 (centres unmarked) [Compound 51, 6-O-(m-methoxybenzoyl)-3',4'-O-benzylidene-4""-epiamino-4""-deoxy-chartreusin]",response vs control in vivo at 20 mg/kg,P-388 leukemia cells,185%
same,response vs control in vivo at 40 mg/kg,P-388 leukemia cells,244%
same,LD50,[1]; Preparation Example 6,≥ 40 mg/kg
"COC1C(O)C(C)OC(OC2C(Oc3cccc4c(OC(=O)C5CCCN5C(=O)OCc5ccccc5)c5c(=O)oc6ccc(C)c7c(=O)oc(c34)c5c67)OC(C)C3OC(C)(C)OC32)C1O (centres unmarked) [Compound 3, 6-O-(N-carbobenzyloxy-prolyl)-3',4'-O-isopropylidene-chartreusin]",response vs control in vivo at 40 mg/kg,P-388 leukemia cells,139%
same,response vs control in vivo at 80 mg/kg,P-388 leukemia cells,195%
same,LD50,[1]; Preparation Example 3,≥ 160 mg/kg

# — patent publication US4927919A, “Chartreusin derivatives and salts thereof” (Ishihara Sangyo Kaisha, Ltd., priority 1985, dated 1990)
